Measured values from ChEMBL document CHEMBL1142875, “Synthesis and biological evaluation of 4-alkylamino-6-(2-hydroxyethyl)-2-methylthiopyrimidines as new rubella virus inhibitors” (Eur J Med Chem, 2007).

Assays:
[1] = Antiviral activity against Rubella virus strain THERIEN in Vero cells; assay type: functional, cell-based
[2] = Cytotoxicity against Vero cells after 48 hrs; assay type: cell-based; conditions: chlorocebus sabaeus
[3] = Selectivity index, Ratio of CC50 for Vero cells to IC50 for Rubella virus strain THERIEN; assay type: functional
[4] = Inhibition of Rubella virus strain THERIEN in Vero cells after 48 hrs of high multiplicity infection by plaque assay; assay type: functional; set-up: concentration or dose not given beside the values

SMILES	IC50 [1] [µM]	CC50 at 48 h [2] [µM]	Ratio CC50/IC50 [3]	Inhibition [4] [%]
C=CCNc1nc(SC)nc(CCO)c1Cl	43.5	481	11.1	83
C#CCNc1nc(SC)nc(CCO)c1I	34.1	716	21	97.3
C=CCNc1nc(SC)nc(CCO)c1I	15.7	356	22.7	93.9
C#CCNc1nc(SC)nc(CCO)c1Br	149	827	5.6	94.4
C=CCNc1nc(SC)nc(CCO)c1Br	50.9	411	8.1	86.9
CSc1nc(CCO)cc(NCc2ccc(Cl)cc2Cl)n1	48	182	3.8	76.1
C#CCNc1cc(CCO)nc(SC)n1	108	1120	10.4	98.8
CCCCN(CCCC)c1cc(CCO)nc(SC)n1	13.5	52.5	3.9	87
CSc1nc(CCO)cc(N(CCO)CCO)n1	170	1820	10.7	95.7
CSc1nc(CCO)cc(N2CCC2)n1	> 278	556	<2	35.6
CSc1nc(CCO)cc(N2CCN(C)CC2)n1	> 233	466	<2	20.6
CSc1nc(CCO)cc(N2CCSCC2)n1	> 231	461	<2	45.2
CSc1nc(CCO)cc(N2CCN(c3cccc(C(F)(F)F)c3)CC2)n1	17.6	39.2	2.2	58.9
CSc1nc(CCO)cc(N2CCN(c3ccccc3)CC2)n1	57	189	3.3	90
CSc1nc(CCO)cc(N2CCSC2)n1	22.6	486	21.6	95.3
CSc1nc(CCO)cc(N2CCC(C)CC2)n1	47.8	233	4.9	96.5

SMILES	IC50 [1] [µM]	CC50 at 48 h [2] [µM]	Ratio CC50/IC50 [3]	Inhibition [4] [%]
CSc1nc(CCO)cc(N2CCCC2)n1	48.1	523	10.9	72.6
CSc1nc(CCO)cc(N(C)Cc2ccccc2)n1	> 54	108	<2	31.9
CCCN(C)c1cc(CCO)nc(SC)n1	25.3	519	20.5	94.2
C#CCN(C)c1cc(CCO)nc(SC)n1	114	1050	9.3	92.1
CCCCCNc1nc(SC)nc(CCO)c1Cl	16.2	108	6.6	66.4
CCCCCNc1nc(SC)nc(CCO)c1I	27.5	81.8	3	95.1
CCCCCNc1nc(SC)nc(CCO)c1Br	37.4	93.3	2.5	60
CCCCCNc1cc(CCO)nc(SC)n1	21.6	245	11.4	94.7
COc1ccccc1N1CCN(c2cc(CCO)nc(SC)n2)CC1	27.8	174	6.2	96.1
CSc1nc(CCO)cc(N2CCN(C(C)=O)CC2)n1	49	422	8.6	65.6
COc1ccc(Nc2cc(CCO)nc(SC)n2)cc1	> 215	430	<2	43.3
C=CCN(CC=C)c1cc(CCO)nc(SC)n1	112	249	2.2	54.7
CSc1nc(CCO)cc(N2CCN(c3ccc(F)cc3)CC2)n1	51.7	180	3.5	93.2
CSc1nc(CCO)cc(N(C)C)n1	80.7	587	7.3	92.8
C#CCNc1nc(SC)nc(CCO)c1Cl	136	485	3.6	85.4
CCCN(CCC)c1cc(CCO)nc(SC)n1	> 29	58	<2	0
